Measured values reported in the supplement of paper PMC10307832.

Legend:
Assay in all cases: relative viability (nuclei count vs DMSO), 5 days (fraction); higher = more cells survive
Tanzisertib + Tozasertib = compound: O[C@H]1CC[C@H](Nc2ncc3nc(Nc4c(F)cc(F)cc4F)n([C@H]4CCOC4)c3n2)CC1 [Tanzisertib] + Cc1cc(Nc2cc(N3CCN(C)CC3)nc(Sc3ccc(NC(=O)C4CC4)cc3)n2)n[nH]1 [Tozasertib] (partner 0.1 µM)
Method in brief: (§1)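 Dosing by pin tool came one day after lung cancer cell lines were seeded in 1536-well plates, using either one drug or a fixed anchor-drug dose plus five library-drug doses (not always all listed) in √10 steps. After 5 days, nuclei were counted on 4× images. Relative viability is treated-well nuclei count divided by vehicle-well nuclei count, and values are medians of duplicate plates.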

Tanzisertib + Bortezomib = compound: O[C@H]1CC[C@H](Nc2ncc3nc(Nc4c(F)cc(F)cc4F)n([C@H]4CCOC4)c3n2)CC1 [Tanzisertib] + CC(C)C[C@H](NC(=O)[C@H](Cc1ccccc1)NC(=O)c1cnccn1)B(O)O [Bortezomib] (partner 0.002 µM)
Method in brief: as §1

Tanzisertib + Lapatinib = compound: O[C@H]1CC[C@H](Nc2ncc3nc(Nc4c(F)cc(F)cc4F)n([C@H]4CCOC4)c3n2)CC1 [Tanzisertib] + CS(=O)(=O)CCNCc1ccc(-c2ccc3ncnc(Nc4ccc(OCc5cccc(F)c5)c(Cl)c4)c3c2)o1 [Lapatinib] (partner 2 µM)
Method in brief: as §1

[1] = compound: C[C@@H](N)c1ccc(C(=O)Nc2ccnc3[nH]ccc23)cc1 + Nc1nc2[nH]cc(CCc3ccc(C(=O)N[C@@H](CCC(=O)O)C(=O)O)cc3)c2c(=O)[nH]1 [Pemetrexed] (partner 0.2 µM)
Method in brief: as §1

Row | Cell Line | relative viability (Tanzisertib + Tozasertib; first compound 0.08 µM) | relative viability (Tanzisertib + Tozasertib; first compound 0.253 µM) | relative viability (Tanzisertib + Tozasertib; first compound 0.8 µM) | relative viability (Tanzisertib + Tozasertib; first compound 2.53 µM) | relative viability (Tanzisertib + Tozasertib; first compound 8 µM) | relative viability (Tanzisertib + Bortezomib; first compound 0.08 µM) | relative viability (Tanzisertib + Bortezomib; first compound 0.253 µM) | relative viability (Tanzisertib + Bortezomib; first compound 0.8 µM) | relative viability (Tanzisertib + Bortezomib; first compound 2.53 µM) | relative viability (Tanzisertib + Bortezomib; first compound 8 µM) | relative viability (Tanzisertib + Lapatinib; first compound 0.08 µM) | relative viability (Tanzisertib + Lapatinib; first compound 0.253 µM) | relative viability (Tanzisertib + Lapatinib; first compound 2.53 µM) | relative viability (Tanzisertib + Lapatinib; first compound 8 µM) | relative viability ([1]; first compound 0.04 µM) | relative viability ([1]; first compound 0.1265 µM) | relative viability ([1]; first compound 0.4 µM) | relative viability ([1]; first compound 1.265 µM) | relative viability ([1]; first compound 4 µM) | relative viability (Tanzisertib + Lapatinib; first compound 0.8 µM)
1 | ABC-1 | 0.165 | 0.197 | 0.175 | 0.137 | 0.134 | 0.292 | 0.346 | 0.268 | 0.356 | 0.228 | 1.17 | 1 | 1.36 | 1.41 |  |  |  |  |  | 
2 | IA-LM |  |  |  |  |  | 0.925 | 0.803 | 0.777 | 0.867 | 0.977 | 0.855 | 0.732 | 1.03 | 1.03 |  |  |  |  |  | 
3 | NCI-H322M | 0.473 | 0.468 | 0.498 | 0.487 | 0.499 | 1.25 | 1.21 | 1.32 | 1.14 | 1.18 | 0.621 | 0.61 | 0.626 | 0.571 | 0.79 | 0.654 | 0.588 | 0.48 | 0.602 | 0.567
4 | NCI-H1792 |  |  |  |  |  | 0.98 | 1.08 | 0.937 | 0.882 | 0.982 | 1.01 | 0.967 | 0.825 | 0.798 | 0.817 | 0.731 | 0.875 | 0.72 | 0.584 | 0.867
5 | LXF-289 | 0.236 | 0.165 | 0.149 | 0.17 | 0.147 | 1.1 | 1.03 | 1.03 | 0.977 | 1.04 | 0.99 | 0.883 | 0.926 | 0.977 | 0.861 | 0.909 | 0.948 | 0.929 | 0.79 | 0.983
6 | HCC-827 | 0.432 | 0.449 | 0.354 | 0.353 | 0.3 | 0.952 | 1.06 | 1.12 | 1.04 | 0.701 | 0.19 | 0.186 | 0.24 | 0.183 |  | 0.272 | 0.268 | 0.292 | 0.264 | 0.201
7 | SW 900 | 0.686 | 0.528 | 0.603 | 0.501 | 0.544 |  |  |  |  |  |  |  |  |  | 0.465 | 0.478 | 0.475 | 0.5 | 0.474 | 
8 | SK-MES-1 | 0.971 | 0.889 | 0.991 | 0.951 | 0.992 |  |  |  |  |  | 0.49 | 0.438 | 0.509 | 0.466 | 0.901 | 0.964 | 0.906 | 0.887 | 0.877 | 0.455
9 | NCI-H1299 |  |  |  |  |  | 1.03 | 1.02 | 1.07 | 1.08 | 1.13 | 1.01 | 0.982 | 1.05 | 1.11 |  |  |  |  |  | 0.989
10 | NCI-H1563 |  |  |  |  |  | 0.957 | 0.859 | 0.917 | 0.829 | 0.945 | 0.973 | 0.947 | 1.06 | 1.01 | 0.772 | 0.915 | 0.867 | 0.413 | 0.706 | 0.967
11 | NCI-H1944 | 0.289 | 0.25 | 0.237 | 0.223 | 0.242 |  |  |  |  |  | 0.949 | 0.935 | 0.873 | 0.796 | 0.594 | 0.605 | 0.73 | 0.596 | 0.611 | 0.862
12 | LK-2 | 0.164 | 0.18 | 0.17 | 0.163 | 0.169 |  |  |  |  |  | 1.1 | 0.895 | 0.996 | 0.977 | 0.345 | 0.264 | 0.22 | 0.282 | 0.362 | 1.12
13 | NCI-H727 | 0.702 | 0.714 | 0.699 | 0.663 | 0.66 | 1 | 0.762 | 1.04 | 0.806 | 0.64 | 0.934 | 0.872 | 0.988 | 0.842 |  |  |  |  |  | 0.952
14 | Calu-6 |  |  |  |  |  | 1.02 | 0.993 | 1.03 | 1.06 | 1.05 | 1.14 | 1.11 | 1.05 | 1 |  |  |  |  |  | 1.07
15 | NCI-H1395 | 0.869 | 0.773 | 0.783 | 0.687 | 0.712 |  |  |  |  |  | 1.02 | 1.1 | 0.985 | 0.914 | 0.888 | 0.95 | 0.927 |  | 0.741 | 1.08
16 | NCI-H1703 |  |  |  |  |  | 0.328 | 0.326 | 0.293 | 0.377 | 0.248 | 1.29 | 1.08 | 1.11 | 0.942 |  |  |  |  |  | 1.09
17 | EBC-1 |  |  |  |  |  | 0.638 | 0.609 | 0.503 | 0.632 | 0.374 | 0.216 | 0.213 | 0.189 | 0.178 |  |  |  |  |  | 0.204
18 | NCI-H2342 | 0.584 | 0.481 | 0.63 | 0.523 | 0.581 |  |  |  |  |  |  |  |  |  | 0.781 | 0.803 | 0.792 | 0.847 | 0.794 | 
19 | ChaGo-K-1 | 0.251 | 0.227 | 0.216 | 0.218 | 0.217 | 0.915 | 1.21 | 1.07 | 0.934 | 0.916 |  |  |  |  | 0.259 | 0.277 | 0.257 | 0.234 | 0.241 | 
20 | NCI-H1648 | 0.418 | 0.564 | 0.467 | 0.398 | 0.597 |  |  |  |  |  |  |  |  |  | 1.12 | 0.933 | 1.03 | 1.12 | 1.28 | 
21 | NCI-H522 | 0.578 | 0.458 | 0.555 | 0.572 | 0.545 |  |  |  |  |  |  |  |  |  | 0.842 | 1.09 | 0.956 | 1.05 | 1.01 | 
22 | A549 |  |  |  |  |  |  |  |  |  |  | 1.04 | 0.92 | 1.05 | 1.07 |  |  |  |  |  | 0.921
23 | NCI-H441 | 0.568 | 0.71 | 0.512 | 0.422 | 0.698 | 0.53 | 0.409 | 0.407 | 0.815 | 0.471 |  |  |  |  | 0.245 | 0.302 | 0.257 | 0.231 | 0.223 | 
24 | LCLC-103H | 0.597 | 0.442 | 0.499 | 0.475 | 0.457 | 1.15 | 1.06 | 1.04 | 1.18 | 1.16 |  |  |  |  | 0.417 | 0.426 | 0.493 | 0.51 | 0.407 | 
